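Test compounds were applied to cells in 96-well plates for 48 hours at 5 doses. TGI denotes the concentration required for complete inhibition of growth.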
Legend:
Test in all cases: NCI anticancer screen, dose series, 48 h
786-0 renal = tested on: 786-0 renal
A498 renal = tested on: A498 renal
A549 NSCLC = tested on: A549 NSCLC
ACHN renal = tested on: ACHN renal
CAKI-1 renal = tested on: CAKI-1 renal
CCRF-CEM leukemia = tested on: CCRF-CEM leukemia
COLO 205 colon = tested on: COLO 205 colon
DMS 114 small cell lung = tested on: DMS 114 small cell lung
DMS 273 small cell lung = tested on: DMS 273 small cell lung
EKVX NSCLC = tested on: EKVX NSCLC
HCC-2998 colon = tested on: HCC-2998 colon
HCT-116 colon = tested on: HCT-116 colon
HCT-15 colon = tested on: HCT-15 colon
HL-60(TB) leukemia = tested on: HL-60(TB) leukemia
HOP-62 NSCLC = tested on: HOP-62 NSCLC
HOP-92 NSCLC = tested on: HOP-92 NSCLC
HT29 colon = tested on: HT29 colon
K-562 leukemia = tested on: K-562 leukemia
KM12 colon = tested on: KM12 colon
KM20L2 colon = tested on: KM20L2 colon
LOX IMVI melanoma = tested on: LOX IMVI melanoma
LXFL 529 NSCLC = tested on: LXFL 529 NSCLC
M14 melanoma = tested on: M14 melanoma
M19-MEL melanoma = tested on: M19-MEL melanoma
MALME-3M melanoma = tested on: MALME-3M melanoma
MOLT-4 leukemia = tested on: MOLT-4 leukemia
NCI-H226 lung = tested on: NCI-H226 lung
NCI-H23 lung = tested on: NCI-H23 lung
NCI-H460 lung = tested on: NCI-H460 lung
NCI-H522 lung = tested on: NCI-H522 lung
OVCAR-3 ovarian = tested on: OVCAR-3 ovarian
OVCAR-4 ovarian = tested on: OVCAR-4 ovarian
OVCAR-5 ovarian = tested on: OVCAR-5 ovarian
OVCAR-8 ovarian = tested on: OVCAR-8 ovarian
RPMI-8226 leukemia = tested on: RPMI-8226 leukemia
RXF 393 renal = tested on: RXF 393 renal
RXF-631 renal = tested on: RXF-631 renal
SF-268 CNS = tested on: SF-268 CNS
SF-295 CNS = tested on: SF-295 CNS
SF-539 CNS = tested on: SF-539 CNS
SK-MEL-2 melanoma = tested on: SK-MEL-2 melanoma
SK-MEL-28 melanoma = tested on: SK-MEL-28 melanoma
SK-MEL-5 melanoma = tested on: SK-MEL-5 melanoma
SK-OV-3 ovarian = tested on: SK-OV-3 ovarian
SN12C renal = tested on: SN12C renal
SNB-19 CNS = tested on: SNB-19 CNS
SNB-78 CNS = tested on: SNB-78 CNS
SR leukemia = tested on: SR leukemia
SW-620 colon = tested on: SW-620 colon
TK-10 renal = tested on: TK-10 renal
U251 CNS = tested on: U251 CNS
UACC-257 melanoma = tested on: UACC-257 melanoma
UACC-62 melanoma = tested on: UACC-62 melanoma
UO-31 renal = tested on: UO-31 renal
XF 498 CNS = tested on: XF 498 CNS
DLD-1 colon = tested on: DLD-1 colon
IGROV1 ovarian = tested on: IGROV1 ovarian
SNB-75 CNS = tested on: SNB-75 CNS

N#C/C(=C\c1ccccc1Br)C(=O)c1ccccc1
TGI (786-0 renal): 30.5 µM
TGI (A498 renal): > 100 µM
TGI (A549 NSCLC): > 70 µM
TGI (ACHN renal): > 89.6 µM
TGI (CAKI-1 renal): > 100 µM
TGI (CCRF-CEM leukemia): 38.6 µM
TGI (COLO 205 colon): > 100 µM
TGI (DMS 114 small cell lung): > 100 µM
TGI (DMS 273 small cell lung): > 100 µM
TGI (EKVX NSCLC): > 100 µM
TGI (HCC-2998 colon): > 100 µM
TGI (HCT-116 colon): > 66.8 µM
TGI (HCT-15 colon): > 47.2 µM
TGI (HL-60(TB) leukemia): 15.9 µM
TGI (HOP-62 NSCLC): > 100 µM
TGI (HOP-92 NSCLC): > 100 µM
TGI (HT29 colon): > 100 µM
TGI (K-562 leukemia): > 42.6 µM
TGI (KM12 colon): > 100 µM
TGI (KM20L2 colon): > 100 µM
TGI (LOX IMVI melanoma): 28.3 µM
TGI (LXFL 529 NSCLC): > 58.3 µM
TGI (M14 melanoma): > 68.1 µM
TGI (M19-MEL melanoma): > 89.5 µM
TGI (MALME-3M melanoma): > 100 µM
TGI (MOLT-4 leukemia): 52.8 µM
TGI (NCI-H226 lung): > 78.2 µM
TGI (NCI-H23 lung): > 62.2 µM
TGI (NCI-H460 lung): > 100 µM
TGI (NCI-H522 lung): > 100 µM
TGI (OVCAR-3 ovarian): > 69.2 µM
TGI (OVCAR-4 ovarian): 58.8 µM
TGI (OVCAR-5 ovarian): 99.1 µM
TGI (OVCAR-8 ovarian): > 38.6 µM
TGI (RPMI-8226 leukemia): 51.6 µM
TGI (RXF 393 renal): > 100 µM
TGI (RXF-631 renal): > 100 µM
TGI (SF-268 CNS): > 85.4 µM
TGI (SF-295 CNS): > 87.5 µM
TGI (SF-539 CNS): > 100 µM
TGI (SK-MEL-2 melanoma): > 100 µM
TGI (SK-MEL-28 melanoma): > 59.1 µM
TGI (SK-MEL-5 melanoma): 34.6 µM
TGI (SK-OV-3 ovarian): > 100 µM
TGI (SN12C renal): > 76.6 µM
TGI (SNB-19 CNS): > 87.3 µM
TGI (SNB-78 CNS): > 100 µM
TGI (SR leukemia): > 83.8 µM
TGI (SW-620 colon): > 45.7 µM
TGI (TK-10 renal): > 100 µM
TGI (U251 CNS): > 71.4 µM
TGI (UACC-257 melanoma): > 100 µM
TGI (UACC-62 melanoma): 87.5 µM
TGI (UO-31 renal): > 53.9 µM
TGI (XF 498 CNS): > 79.9 µM

NC(=O)N/N=C(/c1nc2ccc([N+](=O)[O-])cc2[nH]c1=O)C(O)c1ccco1 (centres undefined)
TGI (786-0 renal): > 100 µM
TGI (A549 NSCLC): > 100 µM
TGI (ACHN renal): > 100 µM
TGI (CAKI-1 renal): > 100 µM
TGI (CCRF-CEM leukemia): > 100 µM
TGI (COLO 205 colon): > 100 µM
TGI (DLD-1 colon): > 100 µM
TGI (DMS 114 small cell lung): > 100 µM
TGI (DMS 273 small cell lung): > 100 µM
TGI (HCC-2998 colon): 85.3 µM
TGI (HCT-116 colon): > 100 µM
TGI (HCT-15 colon): 61 µM
TGI (HL-60(TB) leukemia): > 100 µM
TGI (HOP-62 NSCLC): 94.6 µM
TGI (HOP-92 NSCLC): > 100 µM
TGI (HT29 colon): > 100 µM
TGI (IGROV1 ovarian): > 100 µM
TGI (K-562 leukemia): > 100 µM
TGI (KM20L2 colon): 66.4 µM
TGI (LOX IMVI melanoma): > 100 µM
TGI (LXFL 529 NSCLC): > 100 µM
TGI (M14 melanoma): > 100 µM
TGI (M19-MEL melanoma): > 100 µM
TGI (MALME-3M melanoma): > 100 µM
TGI (MOLT-4 leukemia): > 100 µM
TGI (NCI-H226 lung): > 100 µM
TGI (NCI-H23 lung): > 100 µM
TGI (NCI-H460 lung): > 100 µM
TGI (NCI-H522 lung): > 100 µM
TGI (OVCAR-3 ovarian): > 100 µM
TGI (OVCAR-4 ovarian): > 100 µM
TGI (OVCAR-5 ovarian): > 100 µM
TGI (OVCAR-8 ovarian): > 100 µM
TGI (RPMI-8226 leukemia): > 100 µM
TGI (RXF 393 renal): > 100 µM
TGI (RXF-631 renal): > 100 µM
TGI (SF-268 CNS): > 100 µM
TGI (SF-295 CNS): > 100 µM
TGI (SF-539 CNS): 30.9 µM
TGI (SK-MEL-28 melanoma): > 100 µM
TGI (SK-MEL-5 melanoma): > 100 µM
TGI (SK-OV-3 ovarian): > 100 µM
TGI (SN12C renal): 33.5 µM
TGI (SNB-19 CNS): > 100 µM
TGI (SNB-75 CNS): > 100 µM
TGI (SNB-78 CNS): > 100 µM
TGI (SR leukemia): > 100 µM
TGI (SW-620 colon): > 100 µM
TGI (TK-10 renal): > 100 µM
TGI (U251 CNS): > 100 µM
TGI (UACC-257 melanoma): > 100 µM
TGI (UACC-62 melanoma): > 100 µM
TGI (UO-31 renal): > 100 µM
TGI (XF 498 CNS): > 100 µM

Source: PubChem BioAssay (NCI)
